Experimental data: patent publication US20250179061A1 (SIRONAX LTD., priority 2022, published 2025)

System: HT-29 cells
Test: HT-29 necroptosis cell viability assay (TNF-α/SMAC mimetic/zVAD-FMK, CellTiter-Glo)
Format: cell-based
Settings: Homo sapiens, HT-29, HT-29 necroptosis cell viability assay; class symbols for IC50; read-out: Activity
How it was run: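 HT-29 cells (~5,000/well, overnight) in FBS-free McCoy's 5A with TNF-α 10 ng/ml, SMAC mimetic 6 μM and zVAD-FMK 10 μM plus 10-point 1:3 compound titration, 20 h at 37°C. ATP measured by CellTiter-Glo luminescence; IC50 as geometric mean of duplicates.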

Row | SMILES | IC50
1 | Cc1nc(C2=CCCC2)sc1Oc1ccc(-n2ncn(Cc3c(F)cccc3F)c2=O)cc1 [Example 546, 2-(4-((2-(cyclopent-1-en-1-yl)-4-methylthiazol-5-yl)oxy)phenyl)-4-(2,6-difluorobenzyl)-2,4-dihydro-3H-1,2,4-triazol-3-one] | < 100 nM
2 | Cc1nc(C=C2COC2)sc1Oc1ccc(-n2ncn(Cc3c(F)cccc3F)c2=O)cc1 [Example 547, 4-(2,6-difluorobenzyl)-2-(4-((4-methyl-2-(oxetan-3-ylidenemethyl)thiazol-5-yl)oxy)phenyl)-2,4-dihydro-3H-1,2,4-triazol-3-one] | < 100 nM
3 | O=c1n(Cc2c(F)cccc2F)cnn1-c1ccc(Oc2cc(C3=CCOCC3)ncc2F)c(F)c1 [Example 548, 4-(2,6-difluorobenzyl)-2-(4-((2-(3,6-dihydro-2H-pyran-4-yl)-5-fluoropyridin-4-yl)oxy)-3-fluorophenyl)-2,4-dihydro-3H-1,2,4-triazol-3-one] | < 100 nM
4 | Cc1nc(C2CCNC2)sc1Oc1ccc(-n2ncn(Cc3c(F)cccc3F)c2=O)cc1 (centres unmarked) [Example 549, 4-(2,6-difluorobenzyl)-2-(4-((4-methyl-2-(pyrrolidin-3-yl)thiazol-5-yl)oxy)phenyl)-2,4-dihydro-3H-1,2,4-triazol-3-one] | < 100 nM
5 | Cc1nc(C2CCOC2)sc1Oc1ccc(-n2ncn(Cc3c(F)cccc3F)c2=O)cc1 (centres unmarked) [Example 550, 4-(2,6-difluorobenzyl)-2-(4-((4-methyl-2-(tetrahydrofuran-3-yl)thiazol-5-yl)oxy)phenyl)-2,4-dihydro-3H-1,2,4-triazol-3-one] | < 100 nM
6 | Cc1nc(C2CCOCC2)sc1Oc1ccc(-n2ncn(Cc3c(F)cccc3F)c2=O)cc1 [Example 551, 4-(2,6-difluorobenzyl)-2-(4-((4-methyl-2-(tetrahydro-2H-pyran-4-yl)thiazol-5-yl)oxy)phenyl)-2,4-dihydro-3H-1,2,4-triazol-3-one] | < 100 nM
7 | Cc1nc(CC2COC2)sc1Oc1ccc(-n2ncn(Cc3c(F)cccc3F)c2=O)cc1 [Example 552, 4-(2,6-difluorobenzyl)-2-(4-((4-methyl-2-(oxetan-3-ylmethyl)thiazol-5-yl)oxy)phenyl)-2,4-dihydro-3H-1,2,4-triazol-3-one] | < 100 nM
8 | O=c1n(Cc2c(F)cccc2F)cnn1-c1ccc(Oc2cc(C3CCOCC3)ncc2F)c(F)c1 [Example 553, 4-(2,6-difluorobenzyl)-2-(3-fluoro-4-((5-fluoro-2-(tetrahydro-2H-pyran-4-yl)pyridin-4-yl)oxy)phenyl)-2,4-dihydro-3H-1,2,4-triazol-3-one] | 100 to 1000 nM
9 | Cc1nc(C2CCN(C)C2)sc1Oc1ccc(-n2ncn(Cc3c(F)cccc3F)c2=O)cc1 (centres unmarked) [Example 554, 4-(2,6-difluorobenzyl)-2-(4-((4-methyl-2-(1-methylpyrrolidin-3-yl)thiazol-5-yl)oxy)phenyl)-2,4-dihydro-3H-1,2,4-triazol-3-one] | < 100 nM
10 | CC1(CN)CN(c2cc(Oc3ccc(-n4ncn(Cc5c(F)cccc5F)c4=O)cc3F)c(F)cn2)C1 [Example 555, 2-(4-((2-(3-(aminomethyl)-3-methylazetidin-1-yl)-5-fluoropyridin-4-yl)oxy)-3-fluorophenyl)-4-(2,6-difluorobenzyl)-2,4-dihydro-3H-1,2,4-triazol-3-one] | < 100 nM
11 | C[C@H](O)C1CN(c2cc(Oc3ccc(-n4ncn(Cc5c(F)cccc5F)c4=O)cc3F)c(F)cn2)C1 [Example 556, (S)-4-(2,6-difluorobenzyl)-2-(3-fluoro-4-((5-fluoro-2-(3-(1-hydroxyethyl)azetidin-1-yl)pyridin-4-yl)oxy)phenyl)-2,4-dihydro-3H-1,2,4-triazol-3-one] | < 100 nM
12 | CC1(CNC(=O)OC(C)(C)C)CN(c2cc(Oc3ccc(-n4ncn(Cc5c(F)cccc5F)c4=O)cc3F)c(F)cn2)C1 [Example 557, tert-butyl ((1-(4-(4-(4-(2,6-difluorobenzyl)-5-oxo-4,5-dihydro-1H-1,2,4-triazol-1-yl)-2-fluorophenoxy)-5-fluoropyridin-2-yl)-3-methylazetidin-3-yl)methyl)carbamate] | < 100 nM
13 | Cc1nc(C2CCCC2)sc1Oc1ccc(-n2ncn(Cc3c(F)cccc3F)c2=O)cc1 [Example 558, 2-(4-((2-cyclopentyl-4-methylthiazol-5-yl)oxy)phenyl)-4-(2,6-difluorobenzyl)-2,4-dihydro-3H-1,2,4-triazol-3-one] | < 100 nM
14 | Cc1nc(C(N)=O)sc1Oc1ccc(-n2ncn(Cc3c(F)cccc3F)c2=O)cc1F [Example 559, 5-(4-(4-(2,6-difluorobenzyl)-5-oxo-4,5-dihydro-1H-1,2,4-triazol-1-yl)-2-fluorophenoxy)-4-methylthiazole-2-carboxamide] | < 100 nM
15 | Cc1nc(C(N)=O)sc1Oc1ccc(-n2ncn(Cc3c(F)cccc3F)c2=O)cc1 [Example 560, 5-(4-(4-(2,6-difluorobenzyl)-5-oxo-4,5-dihydro-1H-1,2,4-triazol-1-yl)phenoxy)-4-methylthiazole-2-carboxamide] | < 100 nM
16 | Cc1nc(C#N)sc1Oc1ccc(-n2ncn(Cc3ccccc3F)c2=O)cc1F [Example 561, 5-(2-fluoro-4-(4-(2-fluorobenzyl)-5-oxo-4,5-dihydro-1H-1,2,4-triazol-1-yl)phenoxy)-4-methylthiazole-2-carbonitrile] | < 100 nM

Row | SMILES | IC50
17 | Cc1nc(C(N)=O)sc1Oc1ccc(-n2ncn(Cc3ccccc3F)c2=O)cc1F [Example 562, 5-(2-fluoro-4-(4-(2-fluorobenzyl)-5-oxo-4,5-dihydro-1H-1,2,4-triazol-1-yl)phenoxy)-4-methylthiazole-2-carboxamide] | < 100 nM
18 | Cc1ncsc1Oc1ccc(-n2ncn(Cc3cc(F)ccc3F)c2=O)cc1F [Example 563, 4-(2,5-difluorobenzyl)-2-(3-fluoro-4-((4-methylthiazol-5-yl)oxy)phenyl)-2,4-dihydro-3H-1,2,4-triazol-3-one] | < 100 nM
19 | Cc1nc(C(N)=O)sc1Oc1ccc(-n2ncn(Cc3cc(F)ccc3F)c2=O)cc1F [Example 564, 5-(4-(4-(2,5-difluorobenzyl)-5-oxo-4,5-dihydro-1H-1,2,4-triazol-1-yl)-2-fluorophenoxy)-4-methylthiazole-2-carboxamide] | < 100 nM
20 | Cc1nc(C(N)=O)sc1Oc1ccc(-n2ncn(Cc3cc(Cl)ccn3)c2=O)cc1F [Example 565] | 100 to 1000 nM
21 | Cc1nc(C(N)=O)sc1Oc1ccc(-n2ncn(Cc3ccccc3C#N)c2=O)cc1F [Example 566, 5-(4-(4-(2-cyanobenzyl)-5-oxo-4,5-dihydro-1H-1,2,4-triazol-1-yl)-2-fluorophenoxy)-4-methylthiazole-2-carboxamide] | < 100 nM
22 | Cc1nc(C(N)=O)sc1Oc1ccc(-n2ncn(Cc3c(F)cccc3C#N)c2=O)cc1F [Example 567, 5-(4-(4-(2-cyano-6-fluorobenzyl)-5-oxo-4,5-dihydro-1H-1,2,4-triazol-1-yl)-2-fluorophenoxy)-4-methylthiazole-2-carboxamide] | < 100 nM
23 | Cc1cnc(N2CC(C)(C(N)=O)C2)cc1Oc1ccc(-n2ncn(Cc3c(F)cccc3F)c2=O)cc1Cl [Example 568, 1-(4-(2-chloro-4-(4-(2,6-difluorobenzyl)-5-oxo-4,5-dihydro-1H-1,2,4-triazol-1-yl)phenoxy)-5-methylpyridin-2-yl)-3-methylazetidine-3-carboxamide] | < 100 nM
24 | Cc1nc(C#N)sc1Oc1ccc(-n2ncn(Cc3c(F)cccc3F)c2=O)cc1F [Example 569, 5-(4-(4-(2,6-difluorobenzyl)-5-oxo-4,5-dihydro-1H-1,2,4-triazol-1-yl)-2-fluorophenoxy)-4-methylthiazole-2-carbonitrile] | < 100 nM
25 | Cc1nc(C#N)sc1Oc1ccc(-n2ncn(Cc3ccccc3C#N)c2=O)cc1F [Example 570, 5-(4-(4-(2-cyanobenzyl)-5-oxo-4,5-dihydro-1H-1,2,4-triazol-1-yl)-2-fluorophenoxy)-4-methylthiazole-2-carbonitrile] | 100 to 1000 nM
26 | Cc1nc(C#N)sc1Oc1ccc(-n2ncn(Cc3c(F)cccc3C#N)c2=O)cc1F [Example 571, 5-(4-(4-(2-cyano-6-fluorobenzyl)-5-oxo-4,5-dihydro-1H-1,2,4-triazol-1-yl)-2-fluorophenoxy)-4-methylthiazole-2-carbonitrile] | < 100 nM
27 | Cc1nc(C#N)sc1Oc1ccc(-n2ncn(Cc3cc(F)ccc3F)c2=O)cc1F [Example 572, 5-(4-(4-(2,5-difluorobenzyl)-5-oxo-4,5-dihydro-1H-1,2,4-triazol-1-yl)-2-fluorophenoxy)-4-methylthiazole-2-carbonitrile] | < 100 nM
28 | Cc1nc(Br)sc1Oc1ccc(-n2ncn(Cc3cc(Cl)ccn3)c2=O)cc1F [Example 573, 2-(4-((2-bromo-4-methylthiazol-5-yl)oxy)-3-fluorophenyl)-4-((4-chloropyridin-2-yl)methyl)-2,4-dihydro-3H-1,2,4-triazol-3-one] | 100 to 1000 nM
29 | Cc1nc(C#N)sc1Oc1ccc(-n2ncn(Cc3cc(Cl)ccn3)c2=O)cc1F [Example 574, 5-(4-(4-((4-chloropyridin-2-yl)methyl)-5-oxo-4,5-dihydro-1H-1,2,4-triazol-1-yl)-2-fluorophenoxy)-4-methylthiazole-2-carbonitrile] | 100 to 1000 nM
30 | COC(=O)c1nc(C)c(Oc2ccc(-n3ncn(Cc4cc(Cl)ccn4)c3=O)cc2F)s1 [Example 575, methyl 5-(4-(4-((4-chloropyridin-2-yl)methyl)-5-oxo-4,5-dihydro-1H-1,2,4-triazol-1-yl)-2-fluorophenoxy)-4-methylthiazole-2-carboxylate] | 1000 to 10000 nM
31 | Cc1nc(C#N)sc1Oc1ccc(-n2ncn(Cc3ncccc3Cl)c2=O)cc1F [Example 576, 5-(4-(4-((3-chloropyridin-2-yl)methyl)-5-oxo-4,5-dihydro-1H-1,2,4-triazol-1-yl)-2-fluorophenoxy)-4-methylthiazole-2-carbonitrile] | < 100 nM
32 | CCC(O)(CC)c1nc(C)c(Oc2ccc(-n3ncn(Cc4c(F)cccc4F)c3=O)cc2)s1 [Example 577, 4-(2,6-difluorobenzyl)-2-(4-((2-(3-hydroxypentan-3-yl)-4-methylthiazol-5-yl)oxy)phenyl)-2,4-dihydro-3H-1,2,4-triazol-3-one] | < 100 nM
